One assay has as its system hIRE1a. Kind of assay: XBP1-Luc cell assay. In kind it is cell-based. Conditions: Homo sapiens; HEK293-pLVX-XBP1.fluc-IRES-Puro cells, 600 nM Thapsigargin 1 hour, then inhibitor 6 hours; read-out: fLuc_XBP1_hIRE1a_HEK293_IC50 (IC50). As for the experimental part:
HEK293-pLVX-XBP1.fluc-IRES-Puro cells (ChemPartner) were collected into DMEM (Invitrogen, 11995-065) with 10% FBS (BI, 04-002-1A). Cells were seeded at 1.5E4 cells/well in BioCoat Poly-D-Lysine Black/Clear flat bottom 96 well plate (Corning, 356640) and incubated overnight at 37° C. and 5% CO2. Cells were treated with 600 nM Thapsigargin (Sigma, T9033) for 1 hour at 37° C. and 5% CO2 prior to inhibitor addition. A titration of inhibitor, starting at 30 μM was added to wells for an additional 6 hours at 37° C. and 5% CO2. 100 μl of Steady-Glo Luciferase assay reagent (Promega, E2550) was added to plate and the plate was shaken for 2 minutes. Signal was read using EnSpire (Perkin Elmer).

In assay [1] the target is T1, truncated human IRE1a WT protein, containing the catalytic part (aa 547-977) (Homo sapiens, UniProt O75460).
T1 construct: containing the catalytic part (aa 547-977); made in house
T1 sequence (O75460 547-977): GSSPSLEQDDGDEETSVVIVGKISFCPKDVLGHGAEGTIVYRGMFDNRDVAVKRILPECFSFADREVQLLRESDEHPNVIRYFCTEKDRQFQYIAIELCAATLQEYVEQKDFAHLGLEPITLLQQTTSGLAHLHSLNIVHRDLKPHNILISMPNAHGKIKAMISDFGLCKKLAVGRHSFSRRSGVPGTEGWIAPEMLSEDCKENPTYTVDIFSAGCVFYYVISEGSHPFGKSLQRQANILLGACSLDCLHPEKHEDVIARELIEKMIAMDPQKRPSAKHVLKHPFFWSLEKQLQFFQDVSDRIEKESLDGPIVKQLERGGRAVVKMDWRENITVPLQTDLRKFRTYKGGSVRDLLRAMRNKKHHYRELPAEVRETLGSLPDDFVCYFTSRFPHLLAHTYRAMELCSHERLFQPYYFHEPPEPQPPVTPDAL
As to the kind of experiment: IRE1a biochemical enzyme splice assay. Conditions: 20 nM protein, 500 nM fluorescently quenched IRE1a substrate, 40 min at room temperature; read-out: EnzymeSplice_hIRE1a_IC50 (IC50). As for the experimental part:
A truncated human IRE1a WT protein, containing the catalytic part (aa 547-977) was expressed in baculovirus. The purified protein (20 nM) was incubated with a fluorescently quenched IRE1a substrate (500 nM; 5′/6-FAM-CAGUCCGCAGCACUG-BHQ-1/3′) and a titration of inhibitor, starting at 10 μM (final DMSO concentration=1%) for 40 min at room temperature in assay buffer. Reactions were carried out in a final volume of […] in a 384 well assay plate. The reaction was stopped, and the plate was spun for 1 minute at 1000 rpm. The fluorescence intensity of the IRE1a-substrate was measured using an fluorescent plate reader (Ex 485 nm/Em 535 nm, Perkin Elmer Envision).

Each structure is given as a SMILES string.

In the case of `CCc1cc(-c2ccc3c(NS(=O)(=O)Cc4cccc(F)c4F)ncnn23)cc2cnc(N[C@H]3CCCNC3)nc12` [Compound I-21, (S)-1-(2,3-difluorophenyl)-N-(7-(8-ethyl-2-(piperidin-3-ylamino)quinazolin-6-yl)pyrrolo[2,1-f][1,2,4]triazin-4-yl)methanesulfonamide], the 50% inhibitory concentration (IC50) is under 1 µM in the assay with hIRE1a and under 0.1 µM in assay [1].

With `CCc1cc(-c2ccc3c(NS(=O)(=O)c4ccccc4Cl)ncnn23)cc2cnc(N[C@H]3CCNC3)nc12` [Compound I-11, (S)-2-chloro-N-(7-(8-ethyl-2-(pyrrolidin-3-ylamino)quinazolin-6-yl)pyrrolo[2,1-f][1,2,4]triazin-4-yl)benzenesulfonamide], the 50% inhibitory concentration (IC50) with hIRE1a is 1 to 10 µM; in assay [1], under 0.1 µM.

With `CCc1cc(-c2ccc3c(NS(=O)(=O)C4CCCCC4)ncnn23)cc2cnc(N[C@H]3CCCNC3)nc12` [Compound I-3, (S)—N-(7-(8-ethyl-2-(piperidin-3-ylamino)quinazolin-6-yl)pyrrolo[2,1-f][1,2,4]triazin-4-yl)cyclohexanesulfonamide], the IC50 with hIRE1a was under 1 µM; in assay [1], under 0.1 µM.

As to `CCc1cc(-c2ccc3c(NS(=O)(=O)c4ccccc4)ncnn23)cc2cnc(N[C@H]3CCCNC3)nc12` [Compound I-26, (S)—N-(7-(8-ethyl-2-(piperidin-3-ylamino)quinazolin-6-yl)pyrrolo[2,1-f][1,2,4]triazin-4-yl)benzenesulfonamide], the 50% inhibitory concentration (IC50) in the assay with hIRE1a was 1 to 10 µM; in assay [1] it was under 0.1 µM.

On to `CCc1cc(-c2ccc3c(NS(=O)(=O)N4CCCC4)ncnn23)cc2cnc(N[C@H]3CCCNC3)nc12` [Compound I-30, Pyrrolidine-1-sulfonic acid {7-[8-ethyl-2-(piperidin-3-ylamino)-quinazolin-6-yl]-pyrrolo[2,1-f][1,2,4]triazin-4-yl}-amide], for which the IC50 is under 1 µM in the assay on hIRE1a and under 0.1 µM in assay [1].

For the compound `CCc1cc(-c2ccc3c(NS(=O)(=O)c4ccccc4Cl)ncnn23)cc2cnc(N[C@H]3CC[C@H](O)CC3)nc12` [Compound I-29, 2-chloro-N-(7-(8-ethyl-2-(((1r,4r)-4-hydroxycyclohexyl)amino)quinazolin-6-yl)pyrrolo[2,1-f][1,2,4]triazin-4-yl)benzenesulfonamide], the figures for the IC50 (in the assay on hIRE1a; in assay [1]) were 1 to 10 µM and under 0.1 µM, respectively.

Regarding `CCc1cc(-c2ccc3c(NS(=O)(=O)c4ccccc4C)ncnn23)cc2cnc(N[C@H]3CCCNC3)nc12` [Compound I-2, (S)—N-(7-(8-ethyl-2-(piperidin-3-ylamino)quinazolin-6-yl)pyrrolo[2,1-f][1,2,4]triazin-4-yl)-2-methylbenzenesulfonamide], the concentration for half-maximal inhibition (IC50) was under 1 µM in the assay with hIRE1a and under 0.1 µM in assay [1].

As for `CCc1cc(-c2ccc3c(NS(=O)(=O)C4CCCC4)ncnn23)cc2cnc(N[C@H]3CCCNC3)nc12` [Compound I-15, (S)—N-(7-(8-ethyl-2-(piperidin-3-ylamino)quinazolin-6-yl)pyrrolo[2,1-f][1,2,4]triazin-4-yl)cyclopentanesulfonamide], the IC50 with hIRE1a is under 1 µM; in assay [1] it was under 0.1 µM.

For the compound `CCc1cc(-c2ccc3c(NS(=O)(=O)c4ccc(OC(F)F)cc4)ncnn23)cc2cnc(N[C@H]3CCCNC3)nc12` [Compound I-5, (S)-4-(difluoromethoxy)-N-(7-(8-ethyl-2-(piperidin-3-ylamino)quinazolin-6-yl)pyrrolo[2,1-f][1,2,4]triazin-4-yl)benzenesulfonamide], the IC50 in the assay on hIRE1a is 1 to 10 µM; in assay [1] it was under 0.1 µM.

As to `CCc1cc(-c2ccc3c(NS(=O)(=O)CCC(F)(F)F)ncnn23)cc2cnc(N[C@H]3CCCNC3)nc12` [Compound I-9, (S)—N-(7-(8-ethyl-2-(piperidin-3-ylamino)quinazolin-6-yl)pyrrolo[2,1-f][1,2,4]triazin-4-yl)-3,3,3-trifluoropropane-1-sulfonamide], the figures for the half-maximal inhibitory concentration (IC50) (in the assay with hIRE1a; in assay [1]) were 1 to 10 µM and under 0.1 µM, respectively.

Turning to `CCc1cc(-c2n[nH]c3c(NS(=O)(=O)c4ccccc4Cl)cccc23)cc2cnc(N[C@H]3CCCNC3)nc12` [Compound I-19, (S)-2-chloro-N-(3-(8-ethyl-2-(piperidin-3-ylamino)quinazolin-6-yl)-1H-indazol-7-yl)benzenesulfonamide], the IC50 with hIRE1a is under 1 µM; in assay [1], under 0.1 µM.

Consider `CCCS(=O)(=O)Nc1ncnn2c(-c3cc(CC)c4nc(N[C@H]5CCCNC5)ncc4c3)ccc12` [Compound I-33, (S)—N-(7-(8-ethyl-2-(piperidin-3-ylamino)quinazolin-6-yl)pyrrolo[2,1-f][1,2,4]triazin-4-yl)propane-1-sulfonamide], for which the results for the IC50 (in the assay on hIRE1a; in assay [1]) were under 1 µM and under 0.1 µM, respectively.

For `CCc1cc(-c2csc3c(NS(=O)(=O)c4ccccc4Cl)ncnc23)cc2cnc(N[C@H]3CCCNC3)nc12` [Compound I-23, (S)-2-chloro-N-(7-(8-ethyl-2-(piperidin-3-ylamino)quinazolin-6-yl)thieno[3,2-d]pyrimidin-4-yl)benzenesulfonamide], the half-inhibitory concentration (IC50) is 1 to 10 µM in the assay on hIRE1a and under 0.1 µM in assay [1].

The values above are taken from patent publication US20240262830A1, “IRE1A MODULATORS AND USES THEREOF” (Nimbus Iaso, Inc., priority 2020, published 2024).
